Data as given in patent publication US20260327211A1, “MODULATORS OF A POTASSIUM CHANNEL AND OF TRPV1 CHANNEL AND USES THEREOF” (Bsense Bio Therapeutics Ltd., priority 2023, published 2026).
Read-outs that look alike come from different tables or passages of the source.

Tests used:
[1] = Metabolite identification (Met-ID), human hepatocytes; type: in vitro ADME; conditions: human hepatocytes
Method: Cell culture and incubation: Cryopreserved hepatocyte cells, from human and rat sources, were purchased from commercial sources or in-house production, and were cultured in Williams' Medium E supplemented with glutamine and HEPES, in a humidified 5% CO2 incubator at 37° C., to a cell density of […]. Then, solutions of test compounds at a concentration of 10 μM, or 7-Ethoxycoumarin, as a positive control, at a concentration of 30 μM, in Eagle's Minimum Essential Medium, Catalog No. 30-2003 (ATCC) supplemented with 20% fetal bovine serum, were introduced and the mixture was incubated for 120 minutes, or other specified time points.
The samples were analyzed for metabolites using an LC-MS method developed on […] and PDA systems. Comparative analyses of mass spectra and ion fragmentation between the parent compound and its metabolites were carried out, and metabolic profiling was determined using the mass spectrometric and/or PDA (UV) response. Hypothetical structures of metabolites and their metabolic pathways were proposed.

Rat pharmacokinetics = type: in vivo; conditions: rat, plasma
Method: The pharmacokinetic (PK) properties of test compound following single intravenous (IV) bolus and oral gavage (PO) administration in male Sprague-Dawley (SD) rats were determined in this study.
Test compound administration: Six male Sprague Dawley (SD) rats were divided into two designated groups, Group 1 and Group 2, each composed of three rat subjects. Group 1 animals were subjected to a single intravenous bolus administration of the test compound at a dosage of 1 mg/kg. Group 2 animals were administered with the test compound orally in a single dose, at a concentration of 10 mg/kg. Throughout the study, the animals had unhindered access to food. The test compound was administered at a concentration of 0.5 mg/mL and dose volume of 2 mL/kg for Group 1, and at a concentration of 1 mg/mL and dose volume of 10 mL/kg, for Group 2.
Sample extraction and analysis: Plasma samples were systematically collected at varying time points of 0.083 (only for Group 1), 0.25, 0.5, 1, 2, 4-, 6-, 8-, and 24-hours post-dose. LC-MS/MS was used to determine the test compound's concentration within the collected plasma samples. Data reflecting plasma concentration in correlation to time were graphically represented and subjected to a non-compartmental analysis using the Phoenix WinNonlin 6.3 software program. The resulting pharmacokinetic parameters, including Clearance (Cl), Volume of distribution at steady state (Vdss) and initial concentration (C0) for intravenous administration; peak concentration (Cmax), time of peak concentration (Tmax), and bioavailability (% F) for extravascular administration; and half-life (T1/2), Area Under Curve from time zero to time t (AUC(0-t)), Area Under Curve from time zero to infinity (AUC(0-inf)), Mean Residence Time from time zero to time t (MRT(0-t)), Mean Residence Time from time zero to infinity (MRT(0-inf)) for all routes, were systematically calculated.

[2] = Human liver microsome metabolic stability; type: in vitro ADME; conditions: for HLM T1/2: 1 µM
Text: Liver microsomes which are subcellular particles derived from endoplasmic reticulum of hepatic cells were used for evaluating the tested compounds. These particles are rich in drug metabolizing enzymes, including the cytochrome p-450 family. Liver microsomes are a recommended test system for various in vitro drug metabolism and pharmacokinetics (DMPK) studies. CLint values lower than […] are considered suitable for drug development.
Liver Microsome Metabolic Stability Assay (NADPH): The liver microsome stability assay was evaluated through pre-incubation with HLMs. A liver microsome mixture (pooled from multiple donors) at a concentration of 0.5 mg/mL, and the test compound at a concentration of 1 μM, were warmed in the presence of a NADPH regenerating system (about 1.0 mM) at 37° C. Positive controls, including testosterone (a CYP3A4 substrate), propafenone (a CYP2D6 substrate), and diclofenac (a CYP2C9) substrate, were concurrently incubated with the HLMs, in the presence of the NADPH regenerating system (1.0 mM). Samples were extracted during incubation at multiple intervals: 0, 5, 15, 30, 45 and 60 minutes. To terminate the reactions, the samples were promptly mixed with cooled acetonitrile that included an internal standard (IS). An additional compound was incubated with the HLMs in the absence of the NADPH regeneration system, from which a sample was taken at the 60-minute interval.
The clearance of the test compound in the samples was subsequently analyzed by LC-MS/MS based on the peak area ratios of the analyte to the IS.
The following equation was used to calculate the microsome clearance: […]
Liver weight: 40 grams/kg, 30 grams/kg, 32 grams/kg, 20 grams/kg and 88 grams/kg, for rat, monkey, dog, human and mouse, respectively.

[3] = Log D, 1-octanol/buffer shake flask; type: physicochemical; conditions: pH 7.4
Method: The Log D assay was a miniaturized 1-octanol/buffer shake flask method followed by LC/MS/MS analysis, as follows.
The test compounds or control compounds Nadolol, Chlorpromazine Hydrochloride and Propranolol Hydrochloride were dissolved in 100% DMSO to obtain 10 mM solutions, which were transferred to 96-well polypropylene cluster tubes; 2 μL/well. 1-octanol saturated with 0.1 M phosphate buffer (149 μL/well) and 0.1 M phosphate buffer saturated with 1-octanol (149 μL/well) were added to the tubes, respectively, and each tube was vigorously mixed for 2 minutes and then shaked at a speed of 800 rpm at room temperature for 1 hour, followed by centrifugation at 4000 rpm for 5 minutes at room temperature. Thereafter, for the test compounds and the Chlorpromazine Hydrochloride and Propranolol Hydrochloride, the sample of the buffer layer was diluted by a factor of 50-fold and the sample of 1-octanol layer was diluted by a factor of 2000-fold with internal standard (IS) solution. For Nadolol, the sample of the buffer layer was diluted by a factor of 1000-fold and the sample of 1-octanol layer was diluted by a factor of 400-fold with internal standard (IS) solution. The samples were analyzed using a triple quadrupole mass spectrometer. Peak areas were corrected by dilution factors and embedded internal standard, and the ratio of the corrected peak areas was used to calculate the Log D value. The Log D value for each compound will be calculated by the following equation: […]

CYP3A4 = assay: CYP inhibition / time-dependent inhibition, CYP3A4_Midazolam; type: in vitro ADME, human; conditions: role: inhibitor; substrate midazolam 2.0 μM; CYP TDI ratio
Method: The time-dependent inactivation potency of the test compound to CYP enzymatic activities was assessed by the pre-incubation of the human liver microsomes with the test compound in the presence and absence of NADPH, followed by the incubation with the discrete marker substrates, as follows.
Pre-incubation with human liver microsomes (HLMs): The TDI inactivation potency on CYP enzymatic activities was evaluated through pre-incubation with HLMs (Corning). A liver microsome mixture at a concentration of 0.1 mg/mL, and the test compound at 8 different concentrations (0, 0.05, 0.165, 0.5, 1.65, 5.0, 16.5, or 50.0 μM) was warmed at 37° C. for 10 minutes. Concurrently, a set of known time-dependent inactivators was also prepared in duplicate for comparison. Following this, NADPH (1.0 mM) was added to one group (Group 1), and an equal volume of potassium phosphate buffer to the second group (Group 2), marking the beginning of a 30-minute pre-incubation at 37° C.
Incubation: After pre-incubation, the marker substrate, or marker substrate plus NADPH was added to the mixture, thereby initiating the incubation. The duration of the incubation was dependent on the type of CYP isoform being evaluated. For example, with the CYP3A isoform, the mixture was incubated over 3 minutes utilizing midazolam as the marker substrate (2.0 μM), verapamil as the standard inactivator (3.5 μM).
Termination of Reaction: Following the incubation, ice-cooled acetonitrile containing the internal standard (IS) was added to halt the reactions. Metabolites generated from the marker substrates were then measured via LC-MS/MS, assessed based on peak area ratios of the analyte to IS.

CHO-K1 cells = assay: In vitro micronucleus; type: cell-based; conditions: Plate 3 without S9, 24 hours
Method: The micronucleus assay was performed according to the regulatory guidelines. In brief, CHO-K1 cells were plated at 10000 cells/well in 3 plates and incubated In CHO-K1 growth medium (containing F12K, 10% FBS and 1% PS) overnight.
As a control for the S9 treatment, plate No. 1, cells were treated with cyclophosphamide as a positive control, for 3 hours. For plate No. 2, without S9 treatment, cells were treated with mitomycin C as a positive control, compounds for 3 hours, and for plate No. 3, without S9 treatment, cells were treated with bleomycin sulfate as a positive control continuously for 24 hours.
On the following day, 6 μg/mL of cytochalasin B were added to each well and plates were further incubated overnight. In the day after medium was replaced with a combined 10 μg/mL Hoechst dye solution and 0.5 μM calcein-AM in 100 μL warm DPBS for 30 minutes and the plates were scanned using CQ1 high-content analysis system.

hTRPV1 = biological target: T1, hTRPV1 (Homo sapiens, UniProt Q8NER1); assay: hTRPV1 dual activity electrophysiology, CHO cells co-expressing hKv7.2/3 and hTRPV1; type: cell-based; conditions: Kv7.2/3 co-expressed and activated, capsaicin; read-out: Dual hTRPV1 / Dual Expressing CHO, CAP IC50
T1 construct: CDS of NM_080704.4, inserted into the multiple cloning site of pcDNA3.1(+); host or cells: CHO/hKv7.2/3
Method: Cell culture and DNA transfection: CHO/hKv7.2/3 cells were transfected with hTRPV1 DNA constructs (CDS of NM_080704.4, inserted into the multiple cloning site of pcDNA3.1(+) between the Hind III and BamH I restriction site, Genscript). For CHO transfection, 1×10^6 cells were suspended in a reaction mix (Amaxa™ 4D-Nucleofector™-LONZA) containing 5 μg of hTRPV1 DNA and 0.5 μg of GFP DNA (for cells selection) in a cuvette.
The cells were transformed (Amaxa, DT-133 program for CHO transfection with p-3 Kit) and recovered for 10 minutes at RT in the hood. Then cells were re-suspended in a 10 mL antibiotic (Ab)-free medium suspension and were plated on Gelatin or PLL-coated cover glass in different cell densities. On the next morning, the medium was changed to full medium containing the CHO/hKv7.2/3 cell line selection antibiotics.
Extracellular (Bath) solution: The solution was composed of (in mM): NaCl, 140; KCl, 4; CaCl2, 1.8; MgCl2, 1.2; Glucose, 11; HEPES, 5.5. pH was adjusted to 7.3 with NaOH. Osmolarity was adjusted to 310 mOsm with Sucrose.
Intracellular (Pipette) solution: Pipettes were pulled from borosilicate glass (Warner Instrument Corp, USA) with a resistance of 3-7 MΩ and were filled with internal solution composed of (in mM): KCl, 130; MgCl2, 1; K ATP, 5; EGTA, 5; HEPES, 10. pH was adjusted to 7.3 with KOH. Osmolarity was adjusted to 290 mOsm with Sucrose.
A programmable valve-linked pressurized perfusion system was used for local application of compounds nearby the cell recorded in a consistent flow rate of 2-3 mL/minute. Series resistance was corrected and data were sampled at 5 kHz and low pass filtered at 2.4 kHz using MultiClamp 700B amplifier with pCLAMP11 software (Molecular Devices, USA).
At least 48 hours following cell transfection and plating, cells were recorded to assess the TRPV1 dual activity. Membrane potential was held at −90 mV. To measure the inhibitory effects of the tested compounds on hTRPV1 dual activity the following protocol was performed:
Cells were perfused with vehicle-only containing bath solution. After 30 seconds, a single −40 mV 1.5 second step was applied for Kv7.2/3 activation and 30 seconds later capsaicin (1 μM) was applied for 6 seconds to activate the TRPV1.
Cells perfusion was changed to a compound-containing bath solution, and after 2 minutes and 30 seconds of compound application, a single −40 mV 1.5 second step was applied for Kv7.2/3 activation and 30 seconds later capsaicin (1 μM) was applied for 6 seconds to activate the TRPV1.
Cells perfusion was thereafter changed back to vehicle only-containing bath solution. After 30 seconds, a single −40 mV 1.5 step was applied for Kv7.2/3 activation and 30 seconds later capsaicin (1 μM) was applied for 6 seconds to activate the TRPV1 followed by a capsaicin wash out.
The drug current response, when capsaicin was injected following 3 minutes of pre-incubation with the test compound, was divided by the averaged control currents, induced without compound, before compound incubation and following its washout, to evaluate the drug/control response.

T1 sequence (Q8NER1 whole entry): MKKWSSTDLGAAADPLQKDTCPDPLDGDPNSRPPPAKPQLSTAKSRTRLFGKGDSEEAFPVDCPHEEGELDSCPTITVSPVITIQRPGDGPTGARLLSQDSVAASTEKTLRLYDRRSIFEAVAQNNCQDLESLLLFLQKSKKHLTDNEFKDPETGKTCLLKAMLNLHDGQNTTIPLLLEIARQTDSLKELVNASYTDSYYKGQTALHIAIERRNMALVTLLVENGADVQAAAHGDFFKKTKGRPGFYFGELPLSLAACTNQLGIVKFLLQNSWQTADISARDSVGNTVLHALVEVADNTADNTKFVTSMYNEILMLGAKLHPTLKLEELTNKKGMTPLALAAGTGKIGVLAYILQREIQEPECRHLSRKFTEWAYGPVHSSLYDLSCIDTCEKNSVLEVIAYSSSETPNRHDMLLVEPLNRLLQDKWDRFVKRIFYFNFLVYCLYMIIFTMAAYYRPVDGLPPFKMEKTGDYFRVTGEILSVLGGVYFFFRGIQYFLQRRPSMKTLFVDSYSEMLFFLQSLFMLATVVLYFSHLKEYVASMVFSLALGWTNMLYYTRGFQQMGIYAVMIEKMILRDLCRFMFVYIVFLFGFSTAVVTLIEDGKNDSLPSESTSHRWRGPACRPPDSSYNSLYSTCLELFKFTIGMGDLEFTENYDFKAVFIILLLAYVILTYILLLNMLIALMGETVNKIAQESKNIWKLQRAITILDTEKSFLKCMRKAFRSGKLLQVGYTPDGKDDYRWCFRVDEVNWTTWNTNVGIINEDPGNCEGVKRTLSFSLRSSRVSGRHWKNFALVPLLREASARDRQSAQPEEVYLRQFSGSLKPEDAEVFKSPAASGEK

Compound	Human Hepatocytes MetID (glutathione conjugation) [1]	clearance (Rat pharmacokinetics; iv, 1 mg/kg, read-out: PK: Cl) [L/h/kg]	bioavailability (Rat pharmacokinetics; po, 10 mg/kg, read-out: PK: Oral BA) [%]	HLM and/or Rat PK clearance rates compared to compound 661 [2]	half-life at 1 µM ([2]; human, liver microsomes, human liver microsomes, read-out: HLM T1/2) [h]	logD ([3]; 1-octanol/phosphate buffer, read-out: LogD)	CYP-TDI (midazolam), (−)NADPH/(+)NADPH Ratio CYP3A4 (CYP3A4)	HLM T1/2 ([2]; human liver microsomes) [h]	logD [3]	Micronucleus response Absolute MEC (CHO-K1 cells) [µM]	CC50 (CHO-K1 cells; read-out: Cytotoxicity (%) Absolute EC50) [µM]	IC50 (hTRPV1) [µM]
O=C(Cc1nccc(-n2cc(Cl)c3cc(Cl)cc(Cl)c32)n1)NCCO [Compound 767]	did not indicate the presence of glutathione conjugation and None	2.55	79.7	improved HLM and/or Rat PK clearance rates compared to compound 661	1.03	3.3	1.20					
CC1CN(c2cncc(CC(=O)NC3COCC3O)c2)c2c(Cl)cc(Cl)cc21 (mixture of isomers) [Compound 710]	did not indicate the presence of glutathione conjugation						1.22	0.168	2.88			
Bleomycin sulfate [reference compound]										>28	1.59	
O=C(Cc1cc(-n2cc(Cl)c3cc(Cl)cc(Cl)c32)ncn1)NCCO [Compound 851]	did not indicate the presence of glutathione conjugation			improved HLM and/or Rat PK clearance rates compared to compound 661				1.01	3.38			1.07
